Measured values as given in patent publication US20240368194A1, “IRAK4 DEGRADATION AGENT, AND PREPARATION METHOD THEREFOR AND USE THEREOF” (SHANGHAI LEADINGTAC PHARMACEUTICAL CO. LTD., priority 2021, published 2024).

Target: IRAK4 protein in THP-1 cells (Homo sapiens (Human), UniProt Q9NWZ3)
Test: Degradation of IRAK4 in THP-1 cells, human IRAK4 AlphaLISA assay
Format: cell-based
Details: 24 h incubation
Procedure: THP-1 cells (Stem Cell Bank, Chinese Academy of Sciences) were inoculated onto a 24-well cell culture plate at 0.95 mL/well, with a cell density of 5×10^5 cells/well. The cell plate was incubated overnight in a 37° C., 5% carbon dioxide incubator, and 50 μL of a solution of a compound in dimethyl sulfoxide was added, such that the final concentration of the compound fell within the range of 0.03-3000 nM. After another 24 h of incubation, cells were collected into 1.5 mL centrifuge tubes and centrifuged at 1000 rpm at 4° C. for 5 min. The cell pellets were washed twice with 1×DPBS. The resuspended cells were lysed with 200 μL of lysis buffer (Western and IP cell lysis buffer (Beyotime), supplemented with 1 mM phenylmethylsulfonyl fluoride and protease inhibitor cocktail (Beyotime)), left to stand on ice for 30 mini, and then centrifuged at 14,000 g at 4° C. for 10 min. The supernatant samples were assayed by Western Blot for IRAK4 protein levels.
The above cell lysates were also tested for IRAK4 degradation using a human IRAK4 AlphaLISA assay kit (PerkinElmer, AL3117C). The method is specifically as follows: 2-μL test samples of cell lysate supernatant were transferred to a white 384-well plate (PerkinElmer, 6007299), and 4 μL of 5× anti-IRAK4 receptor beads (PerkinElmer, final concentration of 10 μg/mL) was then added. The plate was incubated at 23° C. for 30 min. Then 4 μL of 5× biotin-labeled anti-IRAK4 antibody (PerkinElmer, final concentration of 1 nM) was added, and the plate was incubated at 23° C. for 60 min. Finally, 10 μL of 2′ streptavidin-labeled donor beads (final concentration of 40 μg/mL) was added to each well, and the plate was incubated in the dark at 23° C. for 30 min. After the incubation was complete, AlphaLISA signal values were measured on a microplate reader EnVision (PerkinElmer, 2105) in the AlphaScreen standard mode, and IRAK4 concentrations were calculated from these signal values. Then a non-linear curve fitting of logarithmic concentration-inhibition rate was performed using GraphPad Prism 7, and the DC50 and Dmax values of the compound were obtained.

Sequence of IRAK4 protein in THP-1 cells (Q9NWZ3 whole entry): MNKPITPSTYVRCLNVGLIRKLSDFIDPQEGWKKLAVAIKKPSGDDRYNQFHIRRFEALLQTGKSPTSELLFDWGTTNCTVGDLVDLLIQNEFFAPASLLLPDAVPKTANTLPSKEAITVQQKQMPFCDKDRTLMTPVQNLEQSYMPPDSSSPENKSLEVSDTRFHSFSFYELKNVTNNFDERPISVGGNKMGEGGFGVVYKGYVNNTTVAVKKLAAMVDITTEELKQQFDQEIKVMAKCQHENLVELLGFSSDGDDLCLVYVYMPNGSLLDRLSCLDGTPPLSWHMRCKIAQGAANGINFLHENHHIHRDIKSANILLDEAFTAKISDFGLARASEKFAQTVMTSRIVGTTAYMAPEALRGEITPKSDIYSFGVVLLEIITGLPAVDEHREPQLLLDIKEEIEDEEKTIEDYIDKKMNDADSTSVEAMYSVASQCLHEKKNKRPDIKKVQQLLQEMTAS

Row | SMILES | DC50 | Dmax
1 | COc1cc2nn([C@H]3CC[C@](O)(COCCC4CCN(C(=O)c5ccc(Cl)c(N6CCC(=O)NC6=O)c5)CC4)CC3)cc2cc1NC(=O)c1cccc(C(F)(F)F)n1 [Example 10] | 2.8 nM | 99.3%
2 | CN(CCC1CCN(C(=O)c2ccc(Cl)c(N3CCC(=O)NC3=O)c2)CC1)C[C@H]1CC[C@H](n2cc(NC(=O)c3cnn4ccc(N5C[C@H]6C[C@@H]5CO6)nc34)c(C(F)F)n2)CC1 [Example 11, 5-((1R,4R)-2-oxa-5-azabicyclo[2.2.1]heptan-5-yl)-N-(1-((1R,4R)-4-(((2-(1-(4-chloro-3-(2,4-dioxotetrahydropyrimidin-1(2H)-yl)benzoyl)piperidin-4-yl)ethyl)(methyl)amino)methyl)cyclohexyl)-3-(difluoromethyl)-1H-pyrazol-4-yl)pyrazolo[1,5-a]pyrinidine-3-carboxamide] | 12.7 nM | 90.7%
3 | O=C1CCN(c2cc(C(=O)N3CCC4(CCN(C[C@H]5CC[C@H](n6cc(NC(=O)c7cnn8ccc(N9CCOCC9)nc78)c(C(F)F)n6)CC5)CC4)CC3)ccc2Cl)C(=O)N1 [Example 29, N-(1-((1R,4R)-4-((9-(4-chloro-3-(2,4-dioxotetrahydropyrimidin-1(2H)-yl)benzoyl)-3,9-diazaspiro[5.5]undecan-3-yl)methyl)cyclohexyl)-3-(difluoromethyl)-1H-pyrazol-4-yl)-5-morpholinopyrazolo[1,5-a]pyrimidine-3-carboxamide] | 2.75 nM | 98.5%
4 | CN(CCC1CCN(C(=O)c2ccc(Cl)c(N3CCC(=O)NC3=O)c2)CC1)C[C@H]1CC[C@H](n2cc(NC(=O)c3cnn4ccc(N5CC6CCC(C5)O6)nc34)c(C(F)F)n2)CC1 [Example 31, 5-(8-oxa-3-azabicyclo[3.2.1]octan-3-yl)-N-(1-((1R,4R)-4-(((2-(1-(4-chloro-3-(2,4-dioxotetrahydropyrimidin-1(2H)-yl)benzoyl)piperidin-4-yl)ethyl)(methyl)amino)methyl)cyclohexyl)-3-(difluoromethyl)-1H-pyrazol-4-yl)pyrazolo[1,5-a]pyrimidine-3-carboxamide] | 6.1 nM | 91.1%
5 | O=C1CCN(c2cc(C(=O)N3CCC4(CCN(C[C@H]5CC[C@H](n6cc(NC(=O)c7cnn8ccc(N9CC%10CCC(C9)O%10)nc78)c(C(F)F)n6)CC5)CC4)CC3)ccc2Cl)C(=O)N1 [Example 32, 5-(8-oxa-3-azabicyclo[3.2.1]octan-3-yl)-N-(1-((1R,4R)-4-((9-(4-chloro-3-(2,4-dioxotetrahydropyrimidin-1(2H)-yl)benzoyl)-3,9-diazaspiro[5.5]undecan-3-yl)methyl)cyclohexyl)-3-(difluoromethyl)-1H-pyrazol-4-yl)pyrazolo[1,5-a]pyrimidine-3-carboxamide] | 3.46 nM | 90.5%
6 | COc1ccc(C(=O)N2CCC(CCN(C)C[C@H]3CC[C@H](n4cc(NC(=O)c5cnn6ccc(N7CCC[C@H](O)C7)nc56)c(C(F)F)n4)CC3)CC2)cc1N1CCC(=O)NC1=O [Example 35, N-(3-(difluoromethyl)-1-((1R,4S)-4-(((2-(1-(3-(2,4-dioxotetrahydropyrimidin-1(2H)-yl)-4-methoxybenzoyl)piperidin-4-yl)ethyl)(methyl)amino)methyl)cyclohexyl)-1H-pyrazol-4-yl)-5-((S)-3-hydroxypiperidin-1-yl)pyrazolo[1,5-a]pyrimidine-3-carboxamide] | 0.78 nM | 100%
7 | COc1ccc(C(=O)N2CCC(CCN(C)C[C@H]3CC[C@H](n4cc(NC(=O)c5cnn6ccc(N7CCC[C@H](N)C7)nc56)c(C(F)F)n4)CC3)CC2)cc1N1CCC(=O)NC1=O [Example 36, 5-((S)-3-aminopiperidin-1-yl)-N-(3-(difluoromethyl)-1-((1R,4S)-4-(((2-(1-(3-(2,4-dioxotetrahydropyrimidin-1(2H)-yl)-4-methoxybenzoyl)piperidin-4-yl)ethyl)(methyl)amino)methyl)cyclohexyl)-1H-pyrazol-4-yl)pyrazolo[1,5-a]pyrimidine-3-carboxamide] | 3.45 nM | 96%
8 | COc1ccc(C(=O)N2CCC(CCN(C)C[C@H]3CC[C@H](n4cc(NC(=O)c5cnn6ccc(N7CC8(COC8)C7)nc56)c(C(F)F)n4)CC3)CC2)cc1N1CCC(=O)NC1=O [Example 39, N-(3-(difluoromethyl)-1-((1R,4R)-4-(((2-(1-(3-(2,4-dioxotetrahydropyrimidin-1(2H)-yl)-4-methoxybenzoyl)piperidin-4-yl)ethyl)(methyl)amino)methyl)cyclohexyl)-1H-pyrazol-4-yl)-5-(2-oxa-6-azaspiro[3.3]heptan-6-yl)pyrazolo[1,5-a]pyrimidine-3-carboxamide] | 10.9 nM | 93.9%
9 | Cc1ccc(C(=O)N2CCC3(CCN(C[C@H]4CC[C@H](n5cc(NC(=O)c6cnn7ccc(N8CCC[C@H](O)C8)nc67)c(C(F)F)n5)CC4)CC3)CC2)cc1N1CCC(=O)NC1=O [Example 45, N-(3-(difluoromethyl)-1-((1R,4S)-4-((9-(3-(2,4-dioxotetrahydropyrimidin-1(2H)-yl)-4-methylbenzoyl)-3,9-diazaspiro[5.5]undecan-3-yl)methyl)cyclohexyl)-1H-pyrazol-4-yl)-5-((S)-3-hydroxypiperidin-1-yl)pyrazolo[1,5-a]pyrimidine-3-carboxamide] | 0.82 nM | 96.2%
10 | CN(CCC1CCN(C(=O)c2ccc(Cl)c(N3CCC(=O)NC3=O)c2)CC1)C[C@H]1CC[C@H](n2cc(NC(=O)c3cnn4ccc(N5CCC[C@H](N)C5)nc34)c(C(F)F)n2)CC1 [Example 47, 5-((S)-3-aminopiperidin-1-yl)-N-(1-((1R,4S)-4-(((2-(1-(4-chloro-3-(2,4-dioxotetrahydropyrimidin-1(2H)-yl)benzoyl)piperidin-4-yl)ethyl)(methyl)amino)methyl)cyclohexyl)-3-(difluoromethyl)-1H-pyrazol-4-yl)pyrazolo[1,5-a]pyrimidine-3-carboxamide] | 4.84 nM | 99%

Further compounds by falling DC50, results first:

Row | DC50 | Dmax | SMILES
11 | 148 nM | 76.4% | Cc1nn([C@H]2CC[C@H](CN3CCC4(CC3)CCN(C(=O)c3ccc(Cl)c(N5CCC(=O)NC5=O)c3)CC4)CC2)cc1NC(=O)c1cnn2ccc(N3C[C@H]4C[C@@H]3CO4)nc12 [Example 7, 5-((1R,4R)-2-oxa-5-azabicyclo[2.2.1]heptan-5-yl)-N-(1-((1R,4R)-4-((9-(4-chloro-3-(2,4-dioxotetrahydropyrimidin-1(2H)-yl)benzoyl)-3,9-diazaspiro[5.5]undecan-3-yl)methyl)cyclohexyl)-3-methyl-1H-pyrazol-4-yl)pyrazolo[1,5-a]pyrimidine-3-carboxamide]
12 | 10.4 nM | 99.4% | COc1cc2nn([C@H]3CC[C@](O)(CN(C)CC4CCC5(CC4)CCN(C(=O)c4ccc(Cl)c(N6CCC(=O)NC6=O)c4)CC5)CC3)cc2cc1NC(=O)c1cccc(C(F)(F)F)n1 [Example 17]
13 | 8.8 nM | 86.8% | COc1cc2nn([C@H]3CC[C@](O)(COCC4CCN(C(=O)c5ccc(Cl)c(N6CCC(=O)NC6=O)c5)CC4)CC3)cc2cc1NC(=O)c1cccc(C(F)(F)F)n1 [Example 8, N-(2-((1S,4S)-4-(((1-(4-chloro-3-(2,4-dioxotetrahydropyrimidin-1(2H)-yl)benzoyl)piperidin-4-yl)methoxy)methyl)-4-hydroxycyclohexyl)-6-methoxy-2H-indol-5-yl)-6-(trifluoromethyl)pyridinecarboxamide]
14 | 5.23 nM | 90.1% | CN(CCC1CCN(C(=O)c2ccc(Cl)c(N3CCC(=O)NC3=O)c2)CC1)C[C@H]1CC[C@H](n2cc(NC(=O)c3cnn4ccc(N5CCOCC5)nc34)c(C(F)F)n2)CC1 [Example 30, N-(1-((1R,4R)-4-(((2-(1-(4-chloro-3-(2,4-dioxotetrahydropyrimidin-1(2H)-yl)benzoyl)piperidin-4-yl)ethyl)(methyl)amino)methyl)cyclohexyl)-3-(difluoromethyl)-1H-pyrazol-4-yl)-5-morpholinopyrazolo[1,5-a]pyrimidine-3-carboxamide]
15 | 3.42 nM | 96.5% | COc1cc2nn([C@H]3CC[C@@](COCCC4CCN(C(=O)c5ccc(Cl)c(N6CCC(=O)NC6=O)c5)CC4)(OC)CC3)cc2cc1NC(=O)c1cccc(C(F)(F)F)n1 [Example 22, N-(2-((1S,4S)-4-((2-(1-(4-chloro-3-(2,4-dioxotetrahydropyrimidin-1(2H)-yl)benzoyl)piperidin-4-yl)ethoxy)methyl)-4-methoxycyclohexyl)-6-methoxy-2H-indazol-5-yl)-6-(trifluoromethyl)pyridinecarboxamide]
